Structures are written as SMILES.

A word on the melting point: it is the temperature of the solid-liquid transition. Consider `CCS(=O)(=O)N[C@H](C(=O)NCCc1cc(Br)c(OCC#Cc2ccc(Cl)cc2)c(OC)c1)C(C)C`, for which the melting point fell in the range of 109 to 111 °C. `CCS(=O)(=O)N[C@H](C(=O)NCCc1cc(Br)c(O)c(OC)c1)C(C)C` showed a melting point of 145 to 147 °C.
